Source: patent publication US6495529B1 (Warner-Lambert Company, priority 1998, dated 2002)

Experiments:
[1] = test system: Swiss-Webster mice; assay: Locomotor stimulant and depressant effects in mice; conditions: mice, i.p.
Protocol: Male Swiss-Webster mice (HSD ND4, Harlan Sprague Dawley, Houston, Tex.) aged 2-3 months were used in these studies. Each dose group consisted of 8 mice. The mice were housed 2 to 4 per cage in 30.4×22.9×15.2 cm clear polycarbonate cages with food and water available ad libitum for at least one week prior to locomotor activity testing. The colony was maintained at 23±1° C., on a normal light-dark cycle beginning at 0700 hr. All testing took place during the light portion of the light-dark cycle.
Horizontal (forward movement) locomotor activity was measured using a standardized, optical activity monitoring system [Model KXYZCM (16), Omnitech Electronics, Columbus, Ohio]. Activity was monitored in forty 40.5×40.5×30.5 cm clear acrylic chambers that where housed in sets of two within larger sound-attenuating chambers. A panel of 16 infrared beams and corresponding photodetectors were spaced 2 cm apart along the sides and 2.4 cm above the floor of each activity chamber. A 7.5-W incandescent light above each chamber provided dim illumination via a rheostat set to 20% of full scale. Fans provided an 80-dB ambient noise level within the chamber.
(+)-Amphetamine was used as a positive control. The total horizontal distance traversed (cm) was recorded at 10 minute intervals for a 2-hour session. Separate groups of 8 mice were assigned to each dose or saline group, and dose-effect testing continued for each compound until maximal stimulant or depressant effects could be estimated. A separate control group was tested along with each compound.
Using TableCurve 2D v2.03 (Jandel Scientific), the mean average total distance traversed (cm/10 min) for that period was fit to a 3-parameter logistic peak function of log10 dose (with the constant set to the mean of the saline group), and the maximum effect estimated from the resulting curve. The ED50 (dose producing ½ maximal stimulant activity) was estimated from a linear regression against log10 dose of the ascending portion of the dose-effect curve. The stimulant efficacy was the peak effect of the compound (cm/10 min) as estimated from the logistic peak function, minus the mean control distance traveled (cm/10 min), and was expressed for each stimulant compound as a ratio to the stimulant efficacy determined for (+)-amphetamine.
The mean average total distance traversed (cm/10 min) for that period were fit to a linear function of log10 dose of the descending portion of the dose-effect curve. […] Efficacy was the ratio of maximal depressant effect to maximum possible depression for each compound (mean average total distance of the control group minus the lowest mean total distance, expressed as a ratio to the control group total distance).
Time course data for each compound were considered in 2-way analyses of variance with dose as a between-group and time as a within-group factor. The dose-effect data were considered in 1-way analyses of variance, and planned individual comparisons were conduced between each dose and the saline control group. Interaction studies were considered in 2-way analyses of variance, with Pretreatment and Test dose as the factors.

[2] = target: α1-receptors; format: binding, dog; conditions: read-out: Alpha-1 Ki
Protocol: The lungs of mongrel dogs were separated from cartilaginous airways and major blood vessels, weighted, chopped and placed into 10 volumes of ice-cold buffered sucrose (50 mM Tris-HCl pH 7.4, 1 mM EGTA, 0.32 M Sucrose). The tissue was then homogenized in a Polytron tissue homogenizer. The homogenate was filtered through two layers of cheesecloth, and the filtrate was dounced three times using a Con-Turque Potter homogenizer. […] The supernatant was recentrifuged at 30,000×g for 30 min at 4° C. and the resulting pellet was washed and resuspended in 10 volumes of Tris buffer (50 mM Tris HCL, pH 7.4, 1 mM EGTA) and incubated at 37° C. for 30 min in a shaking water bath. The suspension was centrifuged at 4° C., at 30,000×g for 30 min and the resulting pellet washed in 10 volumes of Tris buffer. […] Protein concentration was then determined by the Lowry method and the final suspension was adjusted to 10 mg of protein/ml, aliquoted and stored at −90° C.
Nonspecific binding was determined for each concentration point in separate incubations, with 10 μM phentolamine. Each experimental point was determined in triplicate. […] All binding assay incubations were terminated by rapid dilution with 2 ml of ice-cold wash buffer (50 mM Tris-HCl, pH 7.4) and filtration through Whatman GF/B filters using Brandel receptor-binding harvester.
All data were analyzed with the aid of microcomputer nonlinear curve fitting programs (PRISM 2.0, Graphpad Software, San Diego Calif.).
The receptors resident in each of the three membrane preparations were evaluated by standard saturation analysis following the addition of increasing concentrations of the appropriate radioligand. […]

[3] = test system: mongrel dogs; assay: Intravenous dose increasing mean arterial pressure 10% in anesthetized dogs; conditions: anesthetized dog, i.v.
[4] = test system: New Zealand white rabbits; assay: Intraocular pressure (IOP) after topical application to rabbit eye; conditions: topical 1% and 2%, rabbit, treated eye
[5] = test system: Sprague Dawley rats; assay: Nasal airway pressure in normal (non-histamine-challenged) rats; conditions: for Mean Decrease in Nasal Airway Pressure: i.v.
[6] = test system: New Zealand white rabbits; assay: Pupil diameter / mydriasis after topical application to rabbit eye
[7] = test system: rats; assay: Dosage that raised mean arterial pressure 10% in rat; format: in vivo

## CN[C@@H](C)[C@H](O)c1ccccc1 [(−)-ephedrine]
[1]; 2-hour session
  locomotor depressant effect (in words): did not cause locomotor depression
  locomotor stimulant effect (in words): increased locomotion
[1]; (−)-ephedrine: following 50 to 100 mg/kg
  onset of increased locomotion after injection: ≤ 40 min
[2]
  Ki: 47 µM
[3]
  Intravenous Dose Needed to Increase MAP 10%: 0.1 mg/kg
[4]
  effect on IOP (in words): increased IOP
[5]; 5% of the dose that increased MAP 10%, mean ± SEM
  Mean Decrease in Nasal Airway Pressure: −1.0 ± 0.8 mm water
[5]; 10% of the dose that increased MAP 10%
  Mean Decrease in Nasal Airway Pressure: −2.5 ± 1.5 mm water
[5]; 50% of the dose that increased MAP 10%
  Mean Decrease in Nasal Airway Pressure: −1.9 ± 2.0 mm water
[5]; 100% dose i.v., non-histamine-challenged rats
  Mean decrease in nasal airway pressure, % Change: −14%
[5]; after 100% dose (dose raising MAP 10%) into jugular vein
  Nasal airway pressure, Post Drug: 6 ± 0.5 mm H2O
[5]; before drug, non-histamine-challenged rats
  Nasal airway pressure, Control: 7 ± 0.8 mm H2 O
[6]; 1% solution
  Mydriatic Responses, TREATED EYE: 0
  Mydriatic Responses, UNTREATED EYE: 0
[6]; 2% solution
  Mydriatic Responses, TREATED EYE: +++ (+++ >4 mm change)
  Mydriatic Responses, UNTREATED EYE: +++ (+++ >4 mm change)
[6]; drug 1% topical, drug treated eye (T), 0.5 hr
  Pupil Diameter: 6 ± 0.4 mm
[6]; drug 1% topical, drug treated eye (T), 1 hr
  Pupil Diameter: 6 ± 0.4 mm
[6]; drug 1% topical, drug treated eye (T), 3 hr
  Pupil Diameter: 6 ± 0.4 mm
[6]; drug 1% topical, drug treated eye (T), 5 hr
  Pupil Diameter: 6 ± 0.4 mm
[6]; drug 1% topical, drug treated eye (T), −0.5 hr (pre-treatment)
  Pupil Diameter: 6 ± 0.4 mm
[6]; drug 1% topical, drug treated eye (T), −1 hr (pre-treatment)
  Pupil Diameter: 6 ± 0.4 mm
[6]; drug 1% topical, untreated contralateral eye (U), 0.5 hr
  Pupil Diameter: 6 ± 0.4 mm
[6]; drug 1% topical, untreated contralateral eye (U), 1 hr
  Pupil Diameter: 6 ± 0.4 mm
[6]; drug 1% topical, untreated contralateral eye (U), 3 hr
  Pupil Diameter: 6 ± 0.4 mm
[6]; drug 1% topical, untreated contralateral eye (U), 5 hr
  Pupil Diameter: 6 ± 0.4 mm
[6]; drug 1% topical, untreated contralateral eye (U), −0.5 hr (pre-treatment)
  Pupil Diameter: 6 ± 0.4 mm
[6]; drug 1% topical, untreated contralateral eye (U), −1 hr (pre-treatment), mean ± S.E.
  Pupil Diameter: 6 ± 0.4 mm
[6]; drug 2% topical, drug treated eye (T), 0.5 hr
  Pupil Diameter: 9 ± 0.2 mm
[6]; drug 2% topical, drug treated eye (T), 1 hr
  Pupil Diameter: 9 ± 0.2 mm
[6]; drug 2% topical, drug treated eye (T), 3 hr
  Pupil Diameter: 9 ± 0.2 mm
[6]; drug 2% topical, drug treated eye (T), 5 hr
  Pupil Diameter: 9 ± 0.2 mm
[6]; drug 2% topical, drug treated eye (T), −0.5 hr (pre-treatment)
  Pupil Diameter: 5 ± 0.2 mm
[6]; drug 2% topical, drug treated eye (T), −1 hr (pre-treatment)
  Pupil Diameter: 5 ± 0.2 mm
[6]; drug 2% topical, untreated contralateral eye (U), 0.5 hr
  Pupil Diameter: 9 ± 0.2 mm
[6]; drug 2% topical, untreated contralateral eye (U), 1 hr
  Pupil Diameter: 9 ± 0.2 mm
[6]; drug 2% topical, untreated contralateral eye (U), 3 hr
  Pupil Diameter: 9 ± 0.2 mm
[6]; drug 2% topical, untreated contralateral eye (U), 5 hr
  Pupil Diameter: 9 ± 0.2 mm
[6]; drug 2% topical, untreated contralateral eye (U), −0.5 hr (pre-treatment)
  Pupil Diameter: 5 ± 0.2 mm
[6]; drug 2% topical, untreated contralateral eye (U), −1 hr (pre-treatment)
  Pupil Diameter: 5 ± 0.2 mm
[6]; topical, rabbit
  mydriasis / effect on pupil diameter (in words): had no effect on pupil diameter
[7]
  Dosage of Enantiomer that Raised Mean Arterial Pressure 10%, Rat: 30 µg
